The subject of the assay is Puccinia triticina; Synonym: Puccinia recondita f sp. tritici. The assay can be described thus: Wheat brown rust (PUCCRT) disease control on wheat seedlings. Format: in vivo. Particulars: for pest or weed control at 121.5 g/ha: Low Volume activity at 121.5 g/H; for pest or weed control at 100 ppm: High Volume activity at 100 ppm. The protocol:
All fungicides were evaluated using the aforementioned method for their activity vs. all target diseases, unless stated otherwise. Wheat leaf blotch and brown rust activity were also evaluated using track spray applications, in which case the fungicides were formulated as EC formulations, containing 0.1% Trycol 5941 in the spray solutions. Wheat plants (variety Yuma) were grown from seed in a greenhouse in 50% mineral soil/50% soil-less Metro mix until the first leaf was fully emerged, with 7-10 seedlings per pot. These plants were inoculated with an aqueous spore suspension of Puccinia triticina either prior to or after fungicide treatments. […] The plants were then transferred to a greenhouse set at 24° C. for disease to develop. Fungicide formulation, application and disease assessment followed the procedures as described in the Example A.

The mark [1] stands for this setting: 24 h, 1 Day Protectant, read-out: PUCCRT 1DP % Control rating.
The mark [2] stands for this setting: 72 h, 3 Day Curative, read-out: PUCCRT 3DC % Control rating.

Where two headings read alike, the source gives them in different places. Where only a bound is given, the exact number is not on record here.

`CCC[C@H]1CCC[C@H](NC(=O)c2nccc(OC)c2OCOC(C)=O)C(=O)O[C@@H](C)[C@@H]1Cc1ccccc1` [Compound 37]: the pest or weed control at 121.5 g/ha was more than 70% under setting [1] and more than 70% under setting [2].
`CCC[C@H]1CCC[C@H](NC(=O)c2nccc(OC)c2OC(C)=O)C(=O)O[C@@H](C)[C@@H]1Cc1ccccc1` [Compound 38]: the pest or weed control at 121.5 g/ha is, setting by setting: under setting [1], more than 70%; under setting [2], more than 70%.
With `COc1ccnc(C(=O)N[C@H]2CCC[C@H](Cc3ccc(C(F)(F)F)cc3)[C@@H](Cc3ccc(F)cc3)[C@H](C)OC2=O)c1OCOC(C)=O` [Compound 39], the pest or weed control at 121.5 g/ha is less than 70% under setting [1] and less than 70% under setting [2].
On to `COc1ccnc(C(=O)N[C@H]2CCC[C@H](Cc3ccc(C(F)(F)F)cc3)[C@@H](Cc3ccc(F)cc3)[C@H](C)OC2=O)c1OC(C)=O` [Compound 40], for which the pest or weed control at 121.5 g/ha under setting [1] is less than 70% and the pest or weed control at 121.5 g/ha under setting [2] was less than 70%.
For the molecule `COc1ccnc(C(=O)N[C@H]2CCC[C@H](Cc3ccc(C(F)(F)F)cc3)[C@@H](Cc3ccc(F)cc3)[C@H](C)OC2=O)c1OCOC(=O)C(C)C` [Compound 41], the pest or weed control at 121.5 g/ha is less than 70% under setting [1] and less than 70% under setting [2].
Take `COc1ccnc(C(=O)N[C@H]2CCC[C@H](CCC(C)C)[C@@H](C3CCCC3)[C@H](C)OC2=O)c1OCOC(C)=O` [Compound 42]: the pest or weed control at 121.5 g/ha is more than 70% under setting [1] and less than 70% under setting [2].
Consider `COc1ccnc(C(=O)N[C@H]2CCC[C@H](CCC(C)C)[C@@H](C3CCCC3)[C@H](C)OC2=O)c1OC(C)=O` [Compound 43], for which the pest or weed control at 121.5 g/ha reads like this: under setting [1], more than 70%; under setting [2], less than 70%.
For `COc1ccnc(C(=O)N[C@H]2CCC[C@H](CCC(C)C)[C@@H](C3CCCC3)[C@H](C)OC2=O)c1OCOC(=O)C(C)C` [Compound 44], in that order: more than 70% and less than 70%.
Consider `COc1ccnc(C(=O)N[C@H]2CCC[C@H](Cc3ccccc3)[C@@H](CCC(C)C)[C@H](C)OC2=O)c1OC(C)=O` [Compound 45], for which the pest or weed control at 121.5 g/ha under setting [1] is more than 70% and the pest or weed control at 121.5 g/ha under setting [2] is less than 70%.
`CCC[C@H]1CCC[C@H](NC(=O)c2nccc(OC)c2OC(C)=O)C(=O)O[C@@H](C)[C@@H]1Cc1ccc(F)cc1` [Compound 46]: the pest or weed control at 121.5 g/ha was more than 70% under setting [1] and more than 70% under setting [2].
In the case of `COc1ccnc(C(=O)N[C@H]2CCC[C@H](Cc3ccccc3)[C@@H](CCC(C)C)[C@H](C)OC2=O)c1OCOC(C)=O` [Compound 47], the pest or weed control at 121.5 g/ha is more than 70% under setting [1] and less than 70% under setting [2].
For `CCC[C@H]1CCC[C@H](NC(=O)c2nccc(OC)c2OCOC(C)=O)C(=O)O[C@@H](C)[C@@H]1Cc1ccc(F)cc1` [Compound 48], in that order: more than 70% and more than 70%.
Regarding `COc1ccnc(C(=O)N[C@H]2CCC[C@H](Cc3ccccc3)[C@@H](CCC(C)C)[C@H](C)OC2=O)c1OC(=O)C(C)C` [Compound 49], the pest or weed control at 121.5 g/ha under setting [1] is less than 70% and the pest or weed control at 121.5 g/ha under setting [2] is less than 70%.
On to `COc1ccnc(C(=O)N[C@H]2CCC[C@H](Cc3ccccc3)[C@@H](CCC(C)C)[C@H](C)OC2=O)c1OCOC(=O)C(C)C` [Compound 50], for which the pest or weed control at 121.5 g/ha is, setting by setting: under setting [1], more than 70%; under setting [2], less than 70%.
As for `CCOCC(=O)OCOc1c(OC)ccnc1C(=O)N[C@H]1CCC[C@H](Cc2ccccc2)[C@@H](CCC(C)C)[C@H](C)OC1=O` [Compound 51], the pest or weed control at 121.5 g/ha is more than 70% under setting [1] and less than 70% under setting [2].
Turning to `COc1ccnc(C(=O)N[C@H]2CCC[C@H](Cc3ccccc3)[C@@H](c3ccccc3)[C@H](C)OC2=O)c1OCOC(C)=O` [Compound 52], the pest or weed control at 121.5 g/ha is more than 70% under setting [1] and less than 70% under setting [2].
In the same order, the values of `COc1ccnc(C(=O)N[C@H]2CCC[C@H](Cc3ccccc3)[C@@H](c3ccccc3)[C@H](C)OC2=O)c1OC(C)=O` [Compound 53] are more than 70% and less than 70%.
For `CCC[C@H]1CCC[C@H](NC(=O)c2nccc(OC)c2OCOC(C)=O)C(=O)O[C@@H](C)[C@@H]1c1ccccc1` [Compound 54], in that order: more than 70% and more than 70%.
Consider `CCC[C@H]1CCC[C@H](NC(=O)c2nccc(OC)c2OC(C)=O)C(=O)O[C@@H](C)[C@@H]1c1ccccc1` [Compound 55], for which the pest or weed control at 121.5 g/ha is more than 70% under setting [1] and more than 70% under setting [2].
As to `COc1ccnc(C(=O)N[C@H]2CCC[C@H](CCCc3ccccc3)[C@@H](CC(C)C)[C@H](C)OC2=O)c1OC(C)=O` [Compound 56], the pest or weed control at 121.5 g/ha was more than 70% under setting [1] and less than 70% under setting [2].
As for `COc1ccnc(C(=O)N[C@H]2CCC[C@H](CCCc3ccccc3)[C@@H](Cc3ccc(OC(F)(F)F)cc3)[C@H](C)OC2=O)c1OC(C)=O` [Compound 57], the pest or weed control at 121.5 g/ha was less than 70% under setting [1] and less than 70% under setting [2].
`COc1ccnc(C(=O)N[C@H]2CCC[C@H](CCCc3ccccc3)[C@@H](Cc3ccc(OC(F)(F)F)cc3)[C@H](C)OC2=O)c1OC(=O)C(C)C` [Compound 58, 4-methoxy-2-(((3S,7S,8R,9S)-9-methyl-2-oxo-7-(3-phenylpropyl)-8-(4-(trifluoromethoxy)benzyl)oxonan-3-yl)carbamoyl)pyridin-3-yl isobutyrate]: the pest or weed control at 121.5 g/ha reads like this: under setting [1], less than 70%; under setting [2], less than 70%.
Consider `COc1ccnc(C(=O)N[C@H]2CCC[C@H](CCCc3ccccc3)[C@@H](Cc3ccc(OC(F)(F)F)cc3)[C@H](C)OC2=O)c1OCOC(C)=O` [Compound 59], for which the pest or weed control at 121.5 g/ha is more than 70% under setting [1] and less than 70% under setting [2].
On to `COc1ccnc(C(=O)N[C@H]2CCC[C@H](CC3CC3)[C@@H](Cc3ccccc3)[C@H](C)OC2=O)c1OC(C)=O` [Compound 60], for which the pest or weed control at 121.5 g/ha is more than 70% under setting [1] and more than 70% under setting [2].
For the molecule `COc1ccnc(C(=O)N[C@H]2CCC[C@H](CC3CC3)[C@@H](Cc3ccccc3)[C@H](C)OC2=O)c1OCOC(C)=O` [Compound 61], the pest or weed control at 121.5 g/ha is more than 70% under setting [1] and more than 70% under setting [2].
On to `COc1ccnc(C(=O)N[C@H]2CCC[C@H](Cc3ccccc3)[C@@H](Cc3ccc(F)cc3)[C@H](C)OC2=O)c1OC(C)=O` [Compound 62], for which the pest or weed control at 121.5 g/ha is more than 70% under setting [1] and less than 70% under setting [2].
For `COc1ccnc(C(=O)N[C@H]2CCC[C@H](Cc3ccccc3)[C@@H](Cc3ccc(F)cc3)[C@H](C)OC2=O)c1OCOC(C)=O` [Compound 63], in that order: more than 70% and less than 70%.
For `COc1ccnc(C(=O)N[C@H]2CCC[C@H](Cc3ccccc3)[C@@H](Cc3ccc(F)cc3)[C@H](C)OC2=O)c1OCOC(=O)C(C)C` [Compound 64], in that order: more than 70% and less than 70%.
For `COc1ccnc(C(=O)N[C@H]2CCC[C@H](Cc3ccc(C(F)(F)F)cc3)[C@@H](Cc3ccc(OC(F)(F)F)cc3)[C@H](C)OC2=O)c1OCOC(C)=O` [Compound 65], in that order: less than 70% and less than 70%.
On to `CCOCC(=O)OCOc1c(OC)ccnc1C(=O)N[C@H]1CCC[C@H](Cc2ccc(C(F)(F)F)cc2)[C@@H](Cc2ccc(OC(F)(F)F)cc2)[C@H](C)OC1=O` [Compound 66], for which the pest or weed control at 121.5 g/ha was less than 70% under setting [1] and less than 70% under setting [2].
Turning to `COc1ccnc(C(=O)N[C@H]2CCC[C@H](Cc3ccc(C(F)(F)F)cc3)[C@@H](Cc3ccc(OC(F)(F)F)cc3)[C@H](C)OC2=O)c1OC(C)=O` [Compound 67], the pest or weed control at 121.5 g/ha is less than 70% under setting [1] and less than 70% under setting [2].
Take `COc1ccnc(C(=O)N[C@H]2CCC[C@H](Cc3ccccc3)[C@@H](Cc3ccc(OC(F)(F)F)cc3)[C@H](C)OC2=O)c1OCOC(C)=O` [Compound 68]: the pest or weed control at 121.5 g/ha runs as follows: under setting [1], less than 70%; under setting [2], less than 70%.
Turning to `CCOCC(=O)OCOc1c(OC)ccnc1C(=O)N[C@H]1CCC[C@H](Cc2ccccc2)[C@@H](Cc2ccc(OC(F)(F)F)cc2)[C@H](C)OC1=O` [Compound 69], the pest or weed control at 121.5 g/ha by setting is: under setting [1], less than 70%; under setting [2], less than 70%.
`COc1ccnc(C(=O)N[C@H]2CCC[C@H](CCCc3ccccc3)[C@@H](Cc3ccccc3)[C@H](C)OC2=O)c1OCOC(C)=O` [Compound 70]: the pest or weed control at 121.5 g/ha is more than 70% under setting [1] and less than 70% under setting [2].
Turning to `CCCC[C@@H]1[C@@H](Cc2ccccc2)CCC[C@H](NC(=O)c2nccc(OC)c2O)C(=O)O[C@H]1C` [Compound 71, N-((3S,7R,8R,9S)-7-benzyl-8-butyl-9-methyl-2-oxooxonan-3-yl)-3-hydroxy-4-methoxypicolinamide], the pest or weed control at 100 ppm by setting is: under setting [1], more than 70%; under setting [2], more than 70%.
For the molecule `CCCC[C@@H]1[C@@H](Cc2ccc(C(F)(F)F)cc2)CCC[C@H](NC(=O)c2nccc(OC)c2O)C(=O)O[C@H]1C` [Compound 72], the pest or weed control at 100 ppm is more than 70% under setting [1] and less than 70% under setting [2].
